Experiments:
Assay in all cases: relative viability (nuclei count vs DMSO), 5 days (fraction); higher = more cells survive
[1] = compound: CCN1C(=O)C2=CC(=C(N=C2N(C1=O)C3CC3)N)C(=O)N + C[C@@H](Oc1cc(-c2cnn(C3CCNCC3)c2)cnc1N)c1c(Cl)ccc(F)c1Cl [Crizotinib] (partner 1 µM)
Outline: (§1)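 Nuclei were stained with Hoechst during a one-step fixation (final 0.05% Triton X-100, 1% formaldehyde, 1 ug/ml Hoechst) carried out 5 days after dosing, then counted on 4× images. The cells, lung cancer lines in 1536-well plates, had been dosed by pin tool the day after seeding with one drug alone or a fixed anchor-drug dose plus five library-drug doses (not always all listed) in √10 steps. Relative viability is the nuclei count in treated wells divided by that in vehicle wells, and each value is the median of duplicate plates.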

[2] = compound: CCN1C(=O)C2=CC(=C(N=C2N(C1=O)C3CC3)N)C(=O)N + COc1cccc2cc(-c3nc([C@H]4CC[C@H](C(=O)O)CC4)n4ncnc(N)c34)[nH]c12 [OSI-027] (partner 0.5 µM)
Outline: as §1

[3] = compound: CCN1C(=O)C2=CC(=C(N=C2N(C1=O)C3CC3)N)C(=O)N + Nc1ncn([C@H]2C[C@H](O)[C@@H](CO)O2)c(=O)n1 [Decitabine] (partner 2 µM)
Outline: as §1

[4] = compound: CCN1C(=O)C2=CC(=C(N=C2N(C1=O)C3CC3)N)C(=O)N + Nc1nc2[nH]cc(CCc3ccc(C(=O)N[C@@H](CCC(=O)O)C(=O)O)cc3)c2c(=O)[nH]1 [Pemetrexed] (partner 0.2 µM)
Outline: as §1

[5] = compound: CCN1C(=O)C2=CC(=C(N=C2N(C1=O)C3CC3)N)C(=O)N + CC(C)C[C@H](NC(=O)[C@H](Cc1ccccc1)NC(=O)c1cnccn1)B(O)O [Bortezomib] (partner 0.002 µM)
Outline: as §1

| Cell Line | relative viability ([1]; first compound 0.253 µM) | relative viability ([1]; first compound 0.8 µM) | relative viability ([1]; first compound 2.53 µM) | relative viability ([1]; first compound 8 µM) | relative viability ([2]; first compound 0.253 µM) | relative viability ([2]; first compound 0.8 µM) | relative viability ([2]; first compound 2.53 µM) | relative viability ([2]; first compound 8 µM) | relative viability ([3]; first compound 0.253 µM) | relative viability ([3]; first compound 0.8 µM) | relative viability ([3]; first compound 2.53 µM) | relative viability ([3]; first compound 8 µM) | relative viability ([4]; first compound 0.253 µM) | relative viability ([4]; first compound 0.8 µM) | relative viability ([4]; first compound 2.53 µM) | relative viability ([4]; first compound 8 µM) | relative viability ([5]; first compound 0.253 µM) | relative viability ([5]; first compound 0.8 µM) | relative viability ([5]; first compound 2.53 µM) | relative viability ([5]; first compound 8 µM) |
| --- | --- | --- | --- | --- | --- | --- | --- | --- | --- | --- | --- | --- | --- | --- | --- | --- | --- | --- | --- | --- |
| HCC-827 | 0.933 | 0.98 | 0.866 | 0.885 | 0.778 | 0.771 | 0.793 | 0.794 | 0.342 | 0.284 | 0.332 | 0.319 | 0.259 | 0.268 | 0.224 | 0.264 | 1.06 | 1.11 | 1.06 | 0.972 |
| HOP-62 | 0.891 | 0.966 | 0.983 | 0.867 | 0.96 | 0.919 | 0.795 | 0.883 | 0.242 | 0.218 | 0.161 | 0.184 | 0.278 | 0.353 | 0.303 | 0.345 | 0.914 | 0.75 | 0.754 | 0.733 |
| IA-LM | 0.816 | 0.662 | 0.797 | 1.14 |  |  |  |  |  |  |  |  |  |  |  |  | 0.826 | 0.702 | 0.807 | 0.817 |
| LC-2-ad | 0.217 | 0.433 | 0.437 | 0.537 | 0.693 | 0.808 | 0.759 | 0.829 | 0.765 | 0.735 | 0.681 | 0.777 | 0.288 | 0.298 | 0.273 | 0.278 | 0.922 | 0.965 | 1.02 | 1.07 |
| LCLC-97TM1 | 0.366 |  |  | 0.316 | 0.466 | 0.371 | 0.441 | 0.56 | 0.207 | 0.225 | 0.244 | 0.262 | 0.227 | 0.177 | 0.173 | 0.172 | 0.873 | 0.326 | 1.27 | 0.625 |
| LCLC-103H | 1.02 | 1.07 | 1.02 | 1.02 | 0.411 | 0.475 | 0.49 | 0.399 | 0.723 | 0.699 | 0.753 | 0.702 | 0.46 | 0.461 | 0.46 | 0.453 | 1.07 | 0.981 | 1.05 | 1.05 |
| LK-2 | 0.412 | 0.226 | 0.204 | 0.153 | 0.19 | 0.196 | 0.181 | 0.2 | 0.249 | 0.31 | 0.317 | 0.277 | 0.3 | 0.286 | 0.303 | 0.301 |  |  |  |  |
| LOU-NH91 | 0.705 | 0.718 | 0.767 | 0.707 | 0.637 | 0.66 | 0.766 | 0.692 | 0.849 | 0.781 | 0.768 | 0.798 | 0.369 | 0.377 | 0.383 | 0.379 | 0.565 | 0.502 | 0.516 | 0.496 |
| NCI-H358 | 0.642 | 0.551 | 0.525 | 0.774 | 0.85 | 0.818 | 0.779 | 0.814 | 0.193 | 0.207 | 0.19 | 0.227 | 0.172 | 0.181 | 0.188 | 0.164 |  |  |  |  |
| NCI-H727 | 0.899 | 0.797 | 0.843 | 0.882 | 0.59 | 0.528 | 0.654 | 0.723 | 0.882 | 0.842 | 0.802 | 0.676 |  |  |  |  | 0.806 | 0.843 | 0.805 | 0.875 |
| NCI-H1395 |  |  |  |  | 0.62 | 0.587 | 0.697 | 0.593 | 0.698 | 0.75 | 0.707 | 0.609 | 0.922 | 0.811 | 0.979 | 0.816 |  |  |  |  |
| NCI-H1563 | 0.907 | 0.881 | 0.991 | 0.811 | 0.743 | 0.805 | 0.759 | 0.795 |  |  |  |  | 0.762 | 0.799 | 0.965 | 0.742 | 0.919 | 0.871 | 0.83 | 0.681 |
| NCI-H1703 | 0.718 | 0.727 | 0.565 | 1.04 |  |  |  |  |  |  |  |  |  |  |  |  | 0.384 | 0.383 | 0.34 | 0.374 |
| NCI-H1793 |  |  |  |  |  | 0.294 | 0.212 | 0.239 | 0.527 | 0.6 | 0.531 | 0.546 | 0.915 | 0.925 | 0.805 | 0.861 |  |  |  |  |
| NCI-H1944 | 1.06 | 1.12 | 1.01 | 1.3 | 0.4 | 0.399 | 0.473 | 0.378 | 0.485 | 0.423 | 0.393 | 0.434 | 0.64 | 0.589 | 0.615 | 0.624 |  |  |  |  |
| NCI-H2170 | 1.15 | 1.19 | 1.23 | 1.28 | 0.278 | 0.707 | 0.72 | 0.664 | 0.495 | 0.488 | 0.462 | 0.404 | 0.271 | 0.289 | 0.28 | 0.251 |  |  |  |  |
| NCI-H2228 | 0.452 | 0.535 | 0.433 | 0.507 | 0.557 | 0.674 | 0.633 | 0.645 |  |  |  |  | 0.35 | 0.464 | 0.336 | 0.372 | 1.03 | 1.01 | 1.12 | 1.24 |
| NCI-H2342 |  |  |  |  | 0.612 | 0.568 | 0.704 | 0.524 | 0.642 | 0.729 | 0.701 | 0.766 | 0.781 | 0.746 | 0.802 | 0.817 |  |  |  |  |
| SK-MES-1 | 1.02 | 0.966 | 0.926 | 0.946 | 0.626 | 0.564 | 0.588 | 0.583 | 0.381 | 0.359 | 0.4 | 0.365 | 0.981 | 0.911 | 0.858 | 0.882 |  |  |  |  |
| SW 900 |  |  |  |  | 0.568 | 0.531 | 0.475 | 0.731 | 0.347 | 0.511 | 0.49 | 0.443 | 0.462 | 0.517 | 0.52 | 0.473 |  |  |  |  |
